Source: US4590271A, “2,4-diamino-5-(substituted)pyrimidines, useful as antimicrobials” (Burroughs Wellcome Co., priority 1982, dated 1986)
Converted amounts (≈) assume the structure as drawn.

What was measured:
N. gonorrhoeae = assay: Minimum inhibitory concentration in vitro, N. gonorrhoeae; assay type: cell-based; settings: Neisseria gonorrhoeae, mean of 17 strains, read-out: Minimum Inhibitory Concentrations
B. fragilis = assay: Minimum inhibitory concentration in vitro, B. fragilis; assay type: cell-based; settings: Bacteroides fragilis, mean of 3 Strains, read-out: Minimum Inhibitory Concentrations
Staph. aureus CN491 = assay: Minimum inhibitory concentration in vitro, Staph. aureus CN491; assay type: cell-based; settings: Staphylococcus aureus, read-out: Minimum Inhibitory Concentrations
Esch. coli CN314 = assay: Minimum inhibitory concentration in vitro, Esch. coli CN314; assay type: cell-based; settings: Escherichia coli, read-out: Minimum Inhibitory Concentrations
St. faecalis CN478 = assay: Minimum inhibitory concentration in vitro, St. faecalis CN478; assay type: cell-based; settings: Enterococcus faecalis, read-out: Minimum Inhibitory Concentrations
St. agalactiae CN1143 = assay: Minimum inhibitory concentration in vitro, St. agalactiae CN1143; assay type: cell-based; settings: Streptococcus agalactiae, read-out: Minimum Inhibitory Concentrations
St. pyogenes CN10 = assay: Minimum inhibitory concentration in vitro, St. pyogenes CN10; assay type: cell-based; settings: Streptococcus pyogenes, read-out: Minimum Inhibitory Concentrations
bacterial = settings: amongst the 2,4-diamino-5-benzylpyrimidines known to date; cited from earlier work

SMILES | MIC (N. gonorrhoeae) | MIC (B. fragilis) | MIC (Staph. aureus CN491) | MIC (Esch. coli CN314) | MIC (St. faecalis CN478) | MIC (St. agalactiae CN1143) | MIC (St. pyogenes CN10) | general antibacterial activity (bacterial)
COc1cc(Cc2cnc(N)nc2N)cc(OC)c1OC [TMP, 2,4-Diamino-5-(3,4,5-trimethoxybenzyl)pyrimidine, reference compound] | 40 µg/mL (≈ 138 µM) | 3.1 µg/mL (≈ 10.7 µM) | 0.5 µg/mL (≈ 1.72 µM) | 0.05 µg/mL (≈ 0.172 µM) | 0.1 µg/mL (≈ 0.344 µM) | 0.5 µg/mL (≈ 1.72 µM) | 0.5 µg/mL (≈ 1.72 µM) | most active general antibacterial agent
COc1cc(Cc2cnc(N)nc2N)c2c(C)c(C)oc2c1OC [Compound 1, 2,4-Diamino-5-(6,7-dimethoxy-2,3-dimethyl-4-benzofuranylmethyl)pyrimidine] | 25 µg/mL (≈ 76.1 µM) | 25 µg/mL (≈ 76.1 µM) | 0.5 µg/mL (≈ 1.52 µM) | 0.5 µg/mL (≈ 1.52 µM) | 0.5 µg/mL (≈ 1.52 µM) | 5 µg/mL (≈ 15.2 µM) | 5 µg/mL (≈ 15.2 µM) | –
COc1cc(Cc2cnc(N)nc2N)c2cc(C)oc2c1OC [Compound 3, 2,4-Diamino-5-(6,7-dimethoxy-2-methyl-4-benzofuranylmethyl)pyrimidine] | 2.8 µg/mL (≈ 8.91 µM) | 0.6 µg/mL (≈ 1.91 µM) | 0.05 µg/mL (≈ 0.159 µM) | 0.5 µg/mL (≈ 1.59 µM) | 0.05 µg/mL (≈ 0.159 µM) | 0.05 µg/mL (≈ 0.159 µM) | 0.05 µg/mL (≈ 0.159 µM) | –
COc1cc(Cc2cnc(N)nc2N)c2c(c1OC)OC(C)C2 (stereo not shown) [Compound 2, 2,4-Diamino-5-(2,3-dihydro-6,7-dimethoxy-2-methyl-4-benzofuranylmethyl)-pyrimidine] | – | 6.2 µg/mL (≈ 19.6 µM) | 0.5 µg/mL (≈ 1.58 µM) | 0.5 µg/mL (≈ 1.58 µM) | 0.05 µg/mL (≈ 0.158 µM) | 0.5 µg/mL (≈ 1.58 µM) | 0.5 µg/mL (≈ 1.58 µM) | –
